Reference: publication PMC7247329, “Kaempferol and Its Glycoside, Kaempferol 7-O-rhamnoside, Inhibit PD-1/PD-L1 Interaction In Vitro” (International Journal of Molecular Sciences, 2020)
Values joined by “and” are separate entries in the source; they are usually repeats but may differ in a detail not shown here. Identical values can stand only once.

Key:
[1] = biological target: T1, PD-1/PD-L1 protein–protein interaction (Homo sapiens, UniProt Q9NZQ7); assay: PD-1/PD-L1 competitive ELISA; format: binding
T1 construct: purchased BPS Bioscience #71104 (hPD-L1); #71109 (biotinylated hPD-1); kit #72005
T1 sequence (Q9NZQ7 19-239 limits assumed): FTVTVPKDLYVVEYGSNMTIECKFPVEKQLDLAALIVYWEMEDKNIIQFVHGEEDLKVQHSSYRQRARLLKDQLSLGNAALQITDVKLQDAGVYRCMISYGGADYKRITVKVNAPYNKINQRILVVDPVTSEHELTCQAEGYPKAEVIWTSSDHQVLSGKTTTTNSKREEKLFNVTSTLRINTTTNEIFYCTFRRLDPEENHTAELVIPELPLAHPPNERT
Procedure: To elucidate the effect of test inhibitors on PD-1/PD-L1 protein–protein interaction, PD-1/PD-L1 Competitive ELISA Screening Kits (BPS Bioscience Inc., San Diego, CA, USA) were used according to the supplier’s instructions [27]. Briefly, recombinant hPD-L1 (BPS Bioscience, #71104) was coated overnight at 1 μg/mL in phosphate-buffered saline (PBS) in 96-well plates (Corning Inc., New York, NY, USA). Plates were washed with PBS containing 0.1% Tween (PBS-T), blocked for 1 h at room temperature with PBS containing 2% (w/v) BSA, and then washed again. Fifty microliters of 0.5 μg/mL biotinylated hPD-1 (BPS Bioscience, #71109) was added to the wells, and the plates were incubated for 2 h at room temperature. After three washes in PBS-T, 50 μL of 0.2 μg/mL HRP-conjugated streptavidin was added to each well, and the plates were incubated for 1h. After incubation, plates were washed three times in 0.1% PBS-T, and relative chemiluminescence was measured on a SpectraMax L Luminometer from Molecular Devices (San Jose, CA, USA).

PD-1 Jurkat cells = assay: Cell Counting Kit-8 (CCK) cell viability assay; format: cell-based, human; settings: 24 h
PD-L1/aAPC CHO-K1 cells = assay: Cell Counting Kit-8 (CCK) cell viability assay; format: cell-based; settings: 24 h
[2] = tested on: PD-1/PD-L1 interaction in co-cultured PD-1 Jurkat T cells and PD-L1/aAPC CHO-K1 cells; assay: Cell-based PD-1/PD-L1 blockade bioassay (NFAT-luciferase reporter, co-culture); design: species or system human; settings: co-culture 24 h; for EC50: Homo sapiens
Text: When co-cultured with PD-1 Jurkat T cells and PD-L1/aAPC CHO-K1 cells, TCR activation is restrained by PD-1/PD-L1 ligation and the NFAT-luciferase reporter activity. When PD-1/PD-L1 interaction is disrupted, TCR activation induces luminescence via activation of the NFAT pathway in co-culture systems. Therefore, the effects of KO and its glycosides on PD-1/PD-L1 interaction in the cell model system were examined by measuring NFAT-luciferase reporter activity after co-culture with PD-1/NFAT Reporter-Jurkat cells and PD-L1/aAPC CHO-K1 cells. […] The results described above indicate that KO and its glycosides are involved with the PD-1/PD-L1 blockade, as confirmed by the biochemical assay.
A PD-1/PD-L1 Blockade Bioassay kit was used according to the supplier’s instructions (Promega, Fitchburg, WI, USA) with a slight modification. Briefly, the PD-L1 aAPC/CHO-K1 cells were seeded in 96-well plates at a density of 5 × 10^4/well in the complete culture medium. A few hours later, the medium was removed, and 1 × 10^5 PD-1 Jurkat cells were added to each well with test inhibitors. The cells were cultured for 24 h at 37 °C and then lysed using the Bio-Glo™ Luciferase Assay System (Promega, Madison, WI, USA). After incubation for 15 min, luminescence was quantified using a GloMax® Explorer Multimode Microplate Reader (Promega). Data are presented as fold to untreated control.

[3] = tested on: PD-1 level in co-cultured PD-1 Jurkat cells and PD-L1 CHO-K1 cells; assay: Western blot of PD-1 expression in co-cultured cells; format: cell-based, human; settings: 24 h
biotinylated human PD-1 = biological target: T2, biotinylated human PD-1 (Homo sapiens, UniProt Q15116); assay: Biolayer interferometry (BLItz) kinetic analysis; format: binding
T2 construct: purchased BioVision
T2 sequence (Q15116 25-288): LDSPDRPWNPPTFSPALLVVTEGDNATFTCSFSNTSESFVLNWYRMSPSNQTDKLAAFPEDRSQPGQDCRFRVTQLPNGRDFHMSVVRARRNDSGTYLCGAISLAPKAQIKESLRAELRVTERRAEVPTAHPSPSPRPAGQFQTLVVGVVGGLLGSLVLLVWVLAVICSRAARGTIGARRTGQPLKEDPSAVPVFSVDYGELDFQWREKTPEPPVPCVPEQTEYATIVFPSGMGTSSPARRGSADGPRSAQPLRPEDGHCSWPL
Procedure: (§1) To measure the binding affinities and kinetic constants of test inhibitors, BLI analysis was conducted according to a previous report, with slight modifications. Briefly, BLI on a BLItz system is a label-free analytic technology for biomolecular interactions by measuring interference patterns of light reflected from two surfaces. After pre-equilibration of the SA BLI sensor (Pall FortéBio Corp., Menlo Park, CA, USA) in PBS buffer for 10 min, biotinylated human PD-1 (BioVision, Milpitas, CA, USA) and PD-L1 (Sino biological, Beijing, China) were fully loaded onto the sensors by immersion in 4 μL of PD-1 and PD-L1 solution and then dissolved in PBS buffer to 50 μg/mL. Test inhibitors for the kinetic analysis were prepared by 100-fold dilution of stock solution and dissolved in 100% DMSO (0, 0.25, 0.5, and 0.75 mM) in PBS buffer. Binding kinetics were measured as follows: step 1, initial baseline in PBS buffer containing 1% DMSO for 15 s; step 2, association in 4 μL of test inhibitors solution for 20 s; and step 3, dissociation in PBS buffer containing 1% DMSO for 20 s. The kinetic constants were calculated using the BLItz Pro software by fitting the association and dissociation data to a 1:1 model. The equilibrium dissociation constant, KD, was calculated as the dissociation constant (kd)/association constant (ka).

biotinylated human PD-L1 = biological target: T3, biotinylated human PD-L1 (Homo sapiens, UniProt Q9NZQ7); assay: Biolayer interferometry (BLItz) kinetic analysis; format: binding
T3 construct: purchased Sino Biological
T3 sequence (Q9NZQ7 19-290): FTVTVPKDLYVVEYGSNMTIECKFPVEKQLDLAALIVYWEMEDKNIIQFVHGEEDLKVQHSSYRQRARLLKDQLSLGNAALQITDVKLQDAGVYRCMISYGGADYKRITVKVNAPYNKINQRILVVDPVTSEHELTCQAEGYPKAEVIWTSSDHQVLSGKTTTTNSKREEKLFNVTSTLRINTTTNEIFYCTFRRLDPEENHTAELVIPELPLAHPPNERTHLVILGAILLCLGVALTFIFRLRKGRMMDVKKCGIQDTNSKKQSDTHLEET
Procedure: as §1

recombinant PD-1 (hPD-1) = recombinant PD-1 (hPD-1) (Homo sapiens, UniProt Q15116); assay: Surface plasmon resonance (Biacore T200); format: binding; settings: SPR
Chain of recombinant PD-1 (hPD-1) (Q15116 25-170 limits assumed): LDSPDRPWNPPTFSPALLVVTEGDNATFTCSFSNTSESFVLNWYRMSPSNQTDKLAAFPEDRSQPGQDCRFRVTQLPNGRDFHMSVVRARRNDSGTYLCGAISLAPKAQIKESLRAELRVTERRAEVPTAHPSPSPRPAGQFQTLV

[4] = reported; no reference given; cited from earlier work
hPD-L1 = tested on: hPD-L1; design: method as in PMID 31455818, PMID 31374878; settings: biochemical results; cited from earlier work

In the case of C[C@@H]1O[C@@H](Oc2cc(O)c3c(=O)c(O)c(-c4ccc(O)cc4)oc3c2)[C@H](O)[C@H](O)[C@H]1O [KR, kaempferol 7-O-rhamnoside], the “Inhibitory effect on PD-1/PD-L1 binding” value [1] is reported as “revealed inhibitory effects on PD-1/PD-L1 binding but did not show dose-dependent activities”, the “Cytotoxic concentration (not cytotoxic up to)” value (PD-1 Jurkat cells) is reported as > 100 µM and the “Cytotoxic concentration (not cytotoxic up to)” value (PD-L1/aAPC CHO-K1 cells) is reported as > 100 µM. For the same molecule, the EC50 [2] was 15.4 µM, the “Effect on PD-1 level” value [3] was “not upregulation of PD-1 level” and the kd (biotinylated human PD-1; PD-1) was 0.00979 s⁻¹. It also gave a kon (biotinylated human PD-1; PD-1, read-out: ka) of 315 M⁻¹ s⁻¹, a Kd (biotinylated human PD-1; PD-1 immobilized on SA sensor, PBS pH 7.3 with 1% DMSO, 1:1 model) of 31.1 µM and a kd (biotinylated human PD-L1; PD-L1) of 0.00773 s⁻¹. For the same molecule, the kon (biotinylated human PD-L1; PD-L1, read-out: ka) was 392 M⁻¹ s⁻¹, the Kd (biotinylated human PD-L1; PD-L1 immobilized on SA sensor, PBS pH 7.3 with 1% DMSO, 1:1 model) was 19.7 µM and the Kd (recombinant PD-1 (hPD-1); Biacore T200, recombinant PD-1) was 156 µM. The Rmax (recombinant PD-1 (hPD-1); Biacore software) was 24.92 and the Solubility in water [4] was 1.16 mg/mL and 2.68 mM.

In the case of O=c1c(O)c(-c2ccc(O)cc2)oc2cc(O)cc(O)c12 [KO, kaempferol], the IC50 ([1]; PD-L1-coated plate, biotinylated PD-1, read-out: IC50, PD-1/PD-L1 blocking effect) is reported as 7.8 µM, the “Cytotoxic concentration (not cytotoxic up to)” value (PD-1 Jurkat cells) is reported as > 100 µM and the “Cytotoxic concentration (not cytotoxic up to)” value (PD-L1/aAPC CHO-K1 cells) is reported as > 100 µM. The EC50 [2] was 16.5 µM, the “Effect on PD-1 level” value [3] was “not upregulation of PD-1 level” and the Solubility in water [4] was 440 mg/L and 1.537 mM.

In the case of C[C@@H]1O[C@@H](Oc2cc(O)c3c(=O)c(O[C@@H]4O[C@@H](C)[C@H](O)[C@@H](O)[C@H]4O)c(-c4ccc(O)cc4)oc3c2)[C@H](O)[C@H](O)[C@H]1O [KI, kaempferol-3,7-dirhamnoside], the “Cytotoxic concentration (not cytotoxic up to)” value (PD-1 Jurkat cells) is reported as > 100 µM, the “Cytotoxic concentration (not cytotoxic up to)” value (PD-L1/aAPC CHO-K1 cells) is reported as > 100 µM and the “Effect on PD-1/PD-L1 interaction in cell model” value ([2]; indicated concentration) is reported as “no effect at the indicated concentration”.

For C[C@@H](O)[C@H](NC(=O)N[C@@H](CC(N)=O)c1nc([C@@H](N)CO)no1)C(=O)O [CA-170], the “Direct targeting of hPD-L1” value (hPD-L1) is given as “did not target hPD-L1 directly”.
